Results on 3 compounds are retold here after patent US4885310A, “Anti-fungal methods and agent” (Kern; Gerald N., priority 1985, dated 1989).

Structures are written as SMILES.

One data set concerns mycoses. As to conditions: cited from earlier work.
Data set [1] deals with HeLa. The data set is described as follows: Cytotoxicity of docusate sodium in solutions containing serum, HeLa. Format: cell-based, human. Details: key: 0: Cells have normal morphology; 4+: > 90% of cells showed CTE.; ±c: less than 10% of cells showed CTE. The following applies: 2% fetal calf serum, 24 h. Here is the method:
(§1) The cell lines used to evaluate cytotoxicity of docusate sodium were MA-104 derived from monkey kidneys, HeLa derived from human uterine carcinoma and primary fibroblasts from human foreskin. The cells were grown to confluency in 60×15 mm dishes. The cell monolayers were washed free of growth medium and 5 ml of serum-less growth medium containing docusate sodium at various concentrations was added. The cultures were incubated 24 hours at 37° C. and the cells then examined microscopically for cytotoxic effects (CTE). Controls were done in the same manner except that they were not exposed to docusate sodium.
(§2) The same procedure that was used for Example 8 was used for this example except that the medium used for growing the cells contained 2% by volume fetal calf serum.
(§3) Table 2 lists the cytotoxic effect of docusate sodium at various concentrations in selected cell lines in the cell cultures of this Example.

The test system of data set [2] is MA-104. Nature of the data set: Cytotoxicity of docusate sodium in solutions free of serum, MA-104. It counts as cell-based, monkey. Details: key: 0: Cells had normal morphology; 4+: > 90% of cells showed CTE. The following applies: 24 h, 37° C. Here is the method:
as §1
(§4) Table 1 lists the cytotoxicity of docusate sodium with regard to selected cell lines in cell culture.

The test system of another data set is Candida albicans. Nature of the data set: Inhibition of the growth of Candida albicans in broth culture. Format: cell-based. The following applies: TSB, 30° C. Here is the method:
Candida albicans is a yeast and is the causative agent of thrush in humans and is a cause of vaginal infections, urinary tract infections, and infections at other body sites. The growth inhibition effects of docusate sodium on C. albicans are determined in broth culture using trypticase soy broth (TSB) which is a medium which supports growth of a wide variety of microorganisms. TSB was sterilized by autoclaving and filter sterilized docusate sodium in distilled water was added to the sterile TSB at the concentrations shown in Table 3. The cultures were inoculated and incubated at 30° C. for 72 hours. Growth in the cultures was checked at 24 hour intervals.

The subject of data set [3] is MA-104. Nature of the data set: Cytotoxicity of docusate sodium in solutions containing serum, MA-104. As to conditions: for cytotoxic effect (CTE): 24 h, MA-104. Format: cell-based, monkey. Details: key to cytotoxic effect (CTE): 0: Cells have normal morphology; 4+: > 90% of cells showed CTE.; ±c: less than 10% of cells showed CTE. Here is the method:
as §1, §2, §3

Data set [4] concerns HeLa. The data set is described as follows: Cytotoxicity of docusate sodium in solutions free of serum, HeLa. It counts as cell-based, human. Also on record: key: 0: Cells had normal morphology; 4+: > 90% of cells showed CTE. The following applies: 24 h, 37° C. Here is the method:
as §1, §4

Another data set has as its system Penicillium. Nature of the data set: Inhibition of fungal growth on potato dextrose agar plates, Penicillium. Format: cell-based. As to the method:
(§5) FIG. 1 is a photograph of fungal cultures of Scopulariopsis, Penicillium and Aspergillus treated with various concentrations of docusate sodium from 0 concentration (the control) to 2.0 mg/ml and incubated for five days at room temperature. The nature of fungal growth required that a different experimental approach from that of Example 10 be used to determine the growth inhibition effects of docusate sodium on fungi. For these experiments potato dextrose agar plates containing different concentrations of docusate sodium were inoculated in the center of the agar with Scopulariopsis, Penicillium and Aspergillus. The cultures were then sealed with […] brand film and incubated at room temperature for five days. Since growth could not be measured by absorbance visual comparisons were made. […] Similar tests were conducted with Mucor.

The conditions of data set [5]: cited from earlier work.
The subject of data set [6] is primary fibroblasts from human foreskin. The data set is described as follows: Cytotoxicity of docusate sodium in solutions free of serum, foreskin fibroblasts. Format: cell-based. Also on record: key: 0: Cells had normal morphology; 4+: > 90% of cells showed CTE. The following applies: 24 h, 37° C. As to the method:
as §1, §4

The conditions of data set [7]: use as food additive and stool softening agent; cited from earlier work.
The subject of another data set is Aspergillus. The data set is described as follows: Inhibition of fungal growth on potato dextrose agar plates, Aspergillus. Format: cell-based. As to the method: as §5
The next data set relates to Scopulariopsis. The data set is described as follows: Inhibition of fungal growth on potato dextrose agar plates, Scopulariopsis. It counts as cell-based. Here is the method:
as §5

The subject of data set [8] is foreskin fibroblast cells. The data set is described as follows: Cytotoxicity of docusate sodium in solutions containing serum, foreskin fibroblasts. It counts as cell-based, human. Also on record: key: 0: Cells have normal morphology; 4+: > 90% of cells showed CTE.; ±c: less than 10% of cells showed CTE. The following applies: 2% fetal calf serum, 24 h. As to the method: as §1, §2, §3

Another data set deals with Mucor. Nature of the data set: Inhibition of fungal growth, Mucor. Format: cell-based. As to conditions: all concentrations tested. Here is the method: The nature of fungal growth required that a different experimental approach from that of Example 10 be used to determine the growth inhibition effects of docusate sodium on fungi. For these experiments potato dextrose agar plates containing different concentrations of docusate sodium were inoculated in the center of the agar with Scopulariopsis, Penicillium and Aspergillus. The cultures were then sealed with PARAFILM brand film and incubated at room temperature for five days. Since growth could not be measured by absorbance visual comparisons were made. […] The results to date indicate that docusate sodium is fungistatic. […] Similar tests were conducted with Mucor.

For `C[C@@H]1[C@H](O)[C@@H](C)/C=C/C=C/C=C/C=C/C=C/C=C/C=C/[C@H](O[C@@H]2O[C@H](C)[C@@H](O)[C@H](N)[C@@H]2O)C[C@@H]2O[C@](O)(C[C@@H](O)C[C@@H](O)[C@H](O)CC[C@@H](O)C[C@@H](O)CC(=O)O[C@H]1C)C[C@H](O)[C@H]2C(=O)O` [amphotericin B], the toxicity entry in the data set on mycoses (in vivo) was “often exhibits some toxicity”. For the same compound, the “effectiveness against superficial and cutaneous mycoses” value in the data set with mycoses (superficial and cutaneous mycoses) is “not effective for the treatment of superficial and cutaneous mycoses”. The “effectiveness against systemic mycoses” value with mycoses (systemic mycoses) is recorded as “effective for the treatment of many, but not all, systemic mycoses”.

Consider `CCCCC(CC)COC(=O)CC(C(=O)OCC(CC)CCCC)S(=O)(=O)O` (centres unmarked) [docusate sodium, 1,4 bis(2-ethylhexyl) sodium sulfosuccinate], for which the “cytotoxic effect (CTE)” value with HeLa [1] (0.02 mg/ml) was 0; in the data set on HeLa [1] (0.03 mg/ml), “±c (less than 10% of cells showed CTE.)”; in the data set on HeLa [1] (0.04 mg/ml) it was 4+ (> 90% of cells showed CTE.); in the data set with MA-104 [3] (0.01 mg/ml, 2% fetal calf serum) it was 0; in the data set with MA-104 [3] (0.02 mg/ml, 2% fetal calf serum), 0; with MA-104 [3] (0.03 mg/ml, 2% fetal calf serum), 0. Besides, the “cytotoxic effect (CTE)” value is recorded as 0 with MA-104 [3] (0.04 mg/ml, 2% fetal calf serum); 0 in data set [8] (0.01 mg/ml); “±c (less than 10% of cells showed CTE.)” in [8] (0.02 mg/ml); 4+ (> 90% of cells showed CTE.) in [8] (0.03 mg/ml); 4+ (> 90% of cells showed CTE.) in [8] (0.04 mg/ml). The “toxicity (CTE)” value in the data set on MA-104 [2] (0.01 mg/ml) is listed as 0; with MA-104 [2] (0.05 mg/ml) it was 4+ (> 90% of cells showed CTE.); in the data set with MA-104 [2] (0.1 mg/ml) it was 4+ (> 90% of cells showed CTE.); with MA-104 [2] (0.2 mg/ml) it was 4+ (> 90% of cells showed CTE.); with HeLa [4] (0.01 mg/ml), 0; with HeLa [4] (0.05 mg/ml), 4+ (> 90% of cells showed CTE.). Further, the “toxicity (CTE)” value in the data set with HeLa [4] (0.1 mg/ml) is given as 4+ (> 90% of cells showed CTE.); in the data set with HeLa [4] (0.2 mg/ml), 4+ (> 90% of cells showed CTE.); in [6] (0.01 mg/ml) it was 0; in data set [6] (0.05 mg/ml) it was 4+ (> 90% of cells showed CTE.); in [6] (0.1 mg/ml), 4+ (> 90% of cells showed CTE.); in data set [6] (0.2 mg/ml), 4+ (> 90% of cells showed CTE.). The “Growth recorded as absorbance at 540 nm” value is listed as 0.185 with Candida albicans (0.06 mg/ml, 0 h); 0.610 with Candida albicans (0.06 mg/ml, 24 h); 1.10 with Candida albicans (0.06 mg/ml, 48 h); 0.920 in the data set with Candida albicans (0.06 mg/ml, 72 h); 0.230 with Candida albicans (0.12 mg/ml, 0 h); 0.440 in the data set with Candida albicans (0.12 mg/ml, 24 h). In addition, the “Growth recorded as absorbance at 540 nm” value with Candida albicans (0.12 mg/ml, 48 h) worked out at 0.700; in the data set with Candida albicans (0.12 mg/ml, 72 h), 0.950; with Candida albicans (0.25 mg/ml, 0 h), 0.220; with Candida albicans (0.25 mg/ml, 24 h) it was 0.345; in the data set with Candida albicans (0.25 mg/ml, 48 h), 0.600; in the data set with Candida albicans (0.25 mg/ml, 72 h), 0.720. For the same compound, the “Growth recorded as absorbance at 540 nm” value with Candida albicans (0.5 mg/ml, 0 h) worked out at 0.240; in the data set on Candida albicans (0.5 mg/ml, 24 h) it was 0.315; in the data set with Candida albicans (0.5 mg/ml, 48 h), 0.420; in the data set with Candida albicans (0.5 mg/ml, 72 h), 0.730; in the data set with Candida albicans (1.0 mg/ml, 0 h) it was 0.290; with Candida albicans (1.0 mg/ml, 24 h) it was 0.310. Besides, the “Growth recorded as absorbance at 540 nm” value in the data set with Candida albicans (1.0 mg/ml, 48 h) was found to be 0.450; with Candida albicans (1.0 mg/ml, 72 h), 0.610; in the data set with Candida albicans (2.0 mg/ml, 0 h), 0.320; with Candida albicans (2.0 mg/ml, 24 h), 0.470; with Candida albicans (2.0 mg/ml, 48 h), 0.620; in the data set with Candida albicans (2.0 mg/ml, 72 h), 0.780. Further, the “effect of serum on cytotoxicity” value in the data set on MA-104 [3] (2% fetal calf serum vs serum-free, stated for the cells of Table 2) is “presence of serum reduced the cytotoxicity”. Besides, the “relative sensitivity of MA-104 cells” value with MA-104 [3] (2% fetal calf serum, versus HeLa and foreskin fibroblast cells) was “less sensitive”. In addition, the “relative sensitivity of fungus” value in the data set on Penicillium (Penicillium versus Aspergillus and Scopulariopsis) is “least sensitive”; in the data set with Aspergillus (Aspergillus versus Penicillium), “more sensitive”; with Scopulariopsis (Scopulariopsis versus Penicillium), “more sensitive”. For the same compound, the growth inhibition entry in the data set on Penicillium (all concentrations up to 2.0 mg/ml, five days, room temperature, Penicillium) was “growth of fungi was inhibited at all concentrations”; in the data set on Aspergillus (all concentrations up to 2.0 mg/ml, five days, room temperature, Aspergillus) it was “growth of fungi was inhibited at all concentrations”; in the data set on Scopulariopsis (all concentrations up to 2.0 mg/ml, five days, room temperature, Scopulariopsis) it was “growth of fungi was inhibited at all concentrations”; in the data set on Mucor, “growth was inhibited at all concentrations of docusate sodium tested”. Besides, in data set [5] (organic solvents such as alcohol), the “solubility in organic solvents” value was “freely soluble”. Besides, the solubility in water entry in data set [5] (water) is listed as “slowly soluble in water to a limited extent”. Further, the “systemic or local concentration on a cellular level” value in [7] is “do not provide a systemic or local concentration of from about 0.01 mg to about 0.2 mg of docusate sodium per ml on a cellular level”. Also, the “sensitivity of growing tips of fungal mycelia (microscopic examination)” value in the data set with Scopulariopsis (stated for the fungal colonies of FIG. 1) is “growing tips of the fungal mycelia (filaments) are sensitive”. Also, the “fungistatic nature of effect” value in the data set with Scopulariopsis (stated for the fungi of FIG. 1) is recorded as “fungistatic”.

For `COC1=CC(=O)C[C@@H](C)[C@]12Oc1c(Cl)c(OC)cc(OC)c1C2=O` [griseofulvin], in the data set with mycoses (requires prolonged administration of weeks or months), the effectiveness against mycoses entry was “effective only for superficial and subcutaneous mycoses”.
